Values quoted from earlier work, collected in patent publication US8512311B2, “Augmentation of intraluminal microvessel formation to facilitate guide wire crossing in chronic total occlusions” (priority 2004, dated 2013).

System: venous thrombi
Details: injection into venous thrombi, rat model, compared to controls

## vascular endothelial growth factor [VEGF protein]
  increase in thrombus recanalization: two-fold
